This note sets out measurements from patent US12233161B1, “Lipids and lipid nanoparticle formulations” (LONGUIDE BIOPHARMA CORPORATION, priority 2024, dated 2025).

One data set has as its system mice. Briefly: In vivo delivery of FLuc-mRNA lipid nanoparticles in mice, in vivo imaging (IVIS). The conditions noted are these: for IVIS: Fluc-mRNA. The essentials:
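Mice (n=3) received about 75 μL FLuc-mRNA LNP per mouse intramuscularly (rectus femoris), intravenously (tail vein), intraperitoneally or subcutaneously (back). After injection, D-luciferin (200 μL, 15 mg/mL) was given i.p. 10-15 min before IVIS imaging.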

Data set [1] in a line: Particle size and PDI of nucleic acid lipid nanoparticle preparations by dynamic light scattering. The format is physicochemical. The essentials: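 LNP solution (about 0.04 mg/mL mRNA before dilution) was diluted in ultrapure water and mixed by gentle pipetting. Particle size and PDI were then measured by dynamic light scattering.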
The nature of data set [2]: Potential characterization of nucleic acid lipid nanoparticle preparations. The format is physicochemical. On the procedure:
20 μL of the nucleic acid lipid nanoparticle solution (containing about 0.04 mg/mL mRNA) was taken and added with 780 μL of ultrapure water, used a pipette tip to gently blow and mix, and the potential of the nanopreparation was detected by Malvern particle sizer (model ZEN3700).
27.5 μL nucleic acid lipid nanoparticle solution (containing about 0.04 mg/mL mRNA) was taken and added with 200 μL ultrapure water. A pipette tip was used to gently blow the sample and mix well. The particle size of the nanopreparation was detected by Malvern Dynamic Light Scattering Instrument (Malvern Instruments Ltd., ZEN3700, UK). After the detection, the sample was recovered to an EP tube, and 600 μL of ultrapure water was added, gently blown with a pipette tip, and the potential of the nanopreparation was measured by a Malvern particle size meter.

Where [3] appears, read: IM, DMG-PEG2000:DSPC:Chol:compound 1.40:11.15:38.95:48.50, N/P 30.
Where [4] appears, read: DMG-PEG2000:DSPC:Chol:compound 1.40:11.15:38.95:48.50, N/P 30.
Where [5] appears, read: IM, DMG-PEG2000:DSPC:Chol:compound 1.40:11.15:38.95:48.50, N/P 20.
Where [6] appears, read: DMG-PEG2000:DSPC:Chol:compound 1.40:11.15:38.95:48.50, N/P 20.
Setting [7] is: IV, body, DMG-PEG2000:DSPC:Chol:compound 1.40:11.15:38.95:48.50, N/P 30.
The mark [8] stands for this setting: IV, liver, DMG-PEG2000:DSPC:Chol:compound 1.40:11.15:38.95:48.50, N/P 30.
Where [9] appears, read: IV, lung, DMG-PEG2000:DSPC:Chol:compound 1.40:11.15:38.95:48.50, N/P 30.
Where [10] appears, read: IV, spleen, DMG-PEG2000:DSPC:Chol:compound 1.40:11.15:38.95:48.50, N/P 30.
Where [11] appears, read: IV, liver, DMG-PEG2000:DPPC:Chol:compound 1.40:11.15:38.95:48.50, N/P 30.
Where [12] appears, read: IV, lung, DMG-PEG2000:DPPC:Chol:compound 1.40:11.15:38.95:48.50, N/P 30.
The mark [13] stands for this setting: IV, spleen, DMG-PEG2000:DPPC:Chol:compound 1.40:11.15:38.95:48.50, N/P 30.
Setting [14] is: DMG-PEG2000:DPPC:Chol:compound 1.40:11.15:38.95:48.50, N/P 30.
Where [15] appears, read: IV, liver, DMG-PEG2000:DSPC:Chol:compound 1.40:11.15:38.95:48.50, N/P 20.
Setting [16] is: IV, lung, DMG-PEG2000:DSPC:Chol:compound 1.40:11.15:38.95:48.50, N/P 20.
[17] abbreviates: IV, spleen, DMG-PEG2000:DSPC:Chol:compound 1.40:11.15:38.95:48.50, N/P 20.
Where [18] appears, read: DSPE-PEG5000:DSPC:Chol:compound 1.40:11.15:38.95:48.50, N/P 30.

Regarding `CCCCCCCCCCCCNC(=O)C(O)CNCCCN(C)CCCNCC(O)C(=O)NCCCCCCCCCCCC` (stereo not drawn) [Compound L0289], in the data set with mice (setting [3]), the IVIS came to 1.24E+05. In the data set on mice (IV, organ not given, DMG-PEG2000:DSPC:Chol:compound 1.40:11.15:38.95:48.50, N/P 30), this compound came in with an IVIS of 1.63E+05. In addition, in data set [1] (setting [4]), the PDI was 0.09 and the “Particle size (nm)” value came to 132.40 nm. Moreover, in data set [2] (setting [4]), the “Zeta potential (mV)” value is 11.00 mV.
In turn, `CCCCCCCCCCOC(=O)C(O)CN(CCCCCN(CC(O)C(=O)OCCCCCCCCCC)CC(O)C(=O)OCCCCCCCCCC)CC(O)C(=O)OCCCCCCCCCC` (stereo not drawn) [Compound L0318] had an IVIS with mice (setting [5]) of 5.83E+05. Also, the IVIS in the data set with mice (IV, organ not given, DMG-PEG2000:DSPC:Chol:compound 1.40:11.15:38.95:48.50, N/P 20) is 2.09E+05. In data set [1] (setting [6]), the PDI came to 0.25 and the “Particle size (nm)” value is given as 571.13 nm. The “Zeta potential (mV)” value in data set [2] (setting [6]) worked out at 11.23 mV.
`CCCCCCCCCCCCNC(=O)C(O)CNCCCN(C)CCCN(CC(O)C(=O)NCCCCCCCCCCCC)CC(O)C(=O)NCCCCCCCCCCCC` (stereo not drawn) [Compound L0288]: the IVIS with mice (setting [3]) is recorded as 1.45E+05; in the data set with mice (setting [7]) it was 6.03E+06; in the data set on mice (setting [8]), 5.25E+05; with mice (setting [9]), 7.18E+06; in the data set on mice (setting [10]) it was 1.45E+06. The “% of organ targeting” value came to 5.74% with mice (setting [8]), 78.38% with mice (setting [9]) and 15.88% in the data set with mice (setting [10]). For the same compound, the PDI in data set [1] (setting [4]) is reported as 0.12. For the same compound, the “Particle size (nm)” value in data set [1] (setting [4]) was determined as 108.77 nm. In addition, the “Zeta potential (mV)” value in data set [2] (setting [4]) came to 12.50 mV.
As for `CCCCCCCCCCOC(=O)C(O)CN(CCN(C)CCN(CC(O)C(=O)OCCCCCCCCCC)CC(O)C(=O)OCCCCCCCCCC)CC(O)C(=O)OCCCCCCCCCC` (stereo not drawn) [Compound L0337], the IVIS in the data set on mice (setting [3]) is 3.70E+05; with mice (setting [7]), 2.05E+07; in the data set with mice (setting [8]), 2.66E+06; in the data set on mice (setting [9]), 9.51E+05; with mice (setting [10]), 2.87E+07. The “% of organ targeting” value amounted to 8.23% in the data set with mice (setting [8]), 2.94% with mice (setting [9]) and 88.83% in the data set on mice (setting [10]). For the same compound, the PDI in data set [1] (setting [4]) is listed as 0.2. Moreover, the “Particle size (nm)” value in data set [1] (setting [4]) came out at 102.07 nm. The “Zeta potential (mV)” value in data set [2] (setting [4]) is on record as 28.07 mV.
Turning to `CCCCCCCCCCCCN(C)C(=O)C(O)CN(CCCN(C)CCCN(CC(O)C(=O)N(C)CCCCCCCCCCCC)CC(O)C(=O)N(C)CCCCCCCCCCCC)CC(O)C(=O)N(C)CCCCCCCCCCCC` (stereo not drawn) [Compound L0345], the IVIS came out at 3.56E+05 in the data set with mice (IM, DMG-PEG2000:DPPC:Chol:compound 1.40:11.15:38.95:48.50, N/P 30); 2.28E+06 in the data set on mice (IV, body, DMG-PEG2000:DPPC:Chol:compound 1.40:11.15:38.95:48.50, N/P 30); 1.27E+05 with mice (setting [11]); 6.05E+06 with mice (setting [12]); 5.29E+05 in the data set on mice (setting [13]). The “% of organ targeting” value with mice (setting [11]) stood at 1.89%; in the data set on mice (setting [12]), 90.22%; in the data set with mice (setting [13]) it was 7.89%. This compound returned a PDI in data set [1] (setting [14]) of 0.19. In addition, the “Particle size (nm)” value in data set [1] (setting [14]) was 81.64 nm. In addition, in data set [2] (setting [14]), the “Zeta potential (mV)” value is 10.25 mV.
For `CCCCCCCCCCNC(=O)C(O)CN(CCCCCCCN(CC(O)C(=O)NCCCCCCCCCC)CC(O)C(=O)NCCCCCCCCCC)CC(O)C(=O)NCCCCCCCCCC` (stereo not drawn) [Compound L0323], the IVIS in the data set on mice (setting [5]) is 7.24E+05; with mice (IV, body, DMG-PEG2000:DSPC:Chol:compound 1.40:11.15:38.95:48.50, N/P 20) it was 2.95E+06; with mice (setting [15]), 8.40E+05; in the data set with mice (setting [16]), 1.16E+05; in the data set with mice (setting [17]), 9.53E+05. The figures for the “% of organ targeting” value with mice (setting [15]), in the data set on mice (setting [16]) and in the data set on mice (setting [17]) were 44.01%, 6.06% and 49.93%, respectively. The PDI in data set [1] (setting [6]) was determined as 0.14. In addition, the “Particle size (nm)” value in data set [1] (setting [6]) stood at 94.78 nm. Moreover, the “Zeta potential (mV)” value in data set [2] (setting [6]) is 8.37 mV.
As for `CCCCCCCCC(CCCCCC)C(=O)OCCCCCCOC(=O)C(O)CN(C)CCN(C)CCN(C)CC(O)C(=O)OCCCCCCOC(=O)C(CCCCCC)CCCCCCCC` (stereo not drawn) [Compound L0292], the IVIS in the data set with mice (setting [3]) came to 1.05E+05; in the data set on mice (setting [7]), 9.82E+06; with mice (setting [8]) it was 3.22E+06; with mice (setting [9]) it was 2.05E+06; in the data set on mice (setting [10]) it was 7.53E+06. In addition, the “% of organ targeting” value is 25.18% in the data set on mice (setting [8]), 16.03% with mice (setting [9]) and 58.80% in the data set with mice (setting [10]). Also, the PDI in data set [1] (setting [4]) is on record as 0.22. In addition, the “Particle size (nm)” value in data set [1] (setting [4]) amounted to 151.20 nm. The “Zeta potential (mV)” value in data set [2] (setting [4]) turned out to be 13.33 mV.
`CCCCCCCCCCCCN(C)C(=O)C(O)CN(C)CCN(C)CCN(C)CC(O)C(=O)N(C)CCCCCCCCCCCC` (stereo not drawn) [Compound L0341]: the IVIS was found to be 9.99E+04 in the data set with mice (IM, DSPE-PEG5000:DSPC:Chol:compound 1.40:11.15:38.95:48.50, N/P 30) and 4.10E+05 in the data set with mice (IV, organ not given, DSPE-PEG5000:DSPC:Chol:compound 1.40:11.15:38.95:48.50, N/P 30). This compound registered a PDI in data set [1] (setting [18]) of 0.18. The “Particle size (nm)” value in data set [1] (setting [18]) was 212.5 nm. In data set [2] (setting [18]), the “Zeta potential (mV)” value is given as 7.85 mV.
`CCCCCCC(CCCCCC)C(=O)OCCCCCCOC(=O)C(O)CN(CCN(C)CCN(CC(O)C(=O)OCCCCCCOC(=O)C(CCCCCC)CCCCCC)CC(O)C(=O)OCCCCCCOC(=O)C(CCCCCC)CCCCCC)CC(O)C(=O)OCCCCCCOC(=O)C(CCCCCC)CCCCCC` (stereo not drawn) [Compound L0336]: the IVIS came to 1.51E+08 in the data set with mice (setting [3]); 9.63E+08 in the data set on mice (setting [7]); 1.95E+08 with mice (setting [8]); 1.59E+06 with mice (setting [9]); 2.65E+07 with mice (setting [10]). The “% of organ targeting” value in the data set with mice (setting [8]) is 87.42%; in the data set with mice (setting [9]) it was 0.71%; in the data set on mice (setting [10]), 11.87%. Moreover, the PDI in data set [1] (setting [4]) came out at 0.13. Further, in data set [1] (setting [4]), the “Particle size (nm)” value is 78.38 nm. The “Zeta potential (mV)” value in data set [2] (setting [4]) was found to be 4.21 mV.
